pIC50: −log10 of the molar value. Where “and” joins values, the source holds several entries; their conditions need not be identical. Equal values may be shown once. Read-outs that look alike come from different tables or passages of the source.
Columns and labels:
RNAP = settings: cited from earlier work
[1] = Turbidity test (OD620) for aggregation; format: physicochemical
[2] = target: CarD·RNAP binding (CarD association with RPo)
CarD·RNAP binding (CarD association with RPo), sequence (P9WGY5 whole entry): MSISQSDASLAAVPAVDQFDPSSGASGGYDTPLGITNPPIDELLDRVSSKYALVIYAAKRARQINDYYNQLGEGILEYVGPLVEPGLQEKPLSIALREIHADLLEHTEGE
CarD·RNAP binding (CarD association with RPo), sequence (P9WGI1 whole entry, further chain): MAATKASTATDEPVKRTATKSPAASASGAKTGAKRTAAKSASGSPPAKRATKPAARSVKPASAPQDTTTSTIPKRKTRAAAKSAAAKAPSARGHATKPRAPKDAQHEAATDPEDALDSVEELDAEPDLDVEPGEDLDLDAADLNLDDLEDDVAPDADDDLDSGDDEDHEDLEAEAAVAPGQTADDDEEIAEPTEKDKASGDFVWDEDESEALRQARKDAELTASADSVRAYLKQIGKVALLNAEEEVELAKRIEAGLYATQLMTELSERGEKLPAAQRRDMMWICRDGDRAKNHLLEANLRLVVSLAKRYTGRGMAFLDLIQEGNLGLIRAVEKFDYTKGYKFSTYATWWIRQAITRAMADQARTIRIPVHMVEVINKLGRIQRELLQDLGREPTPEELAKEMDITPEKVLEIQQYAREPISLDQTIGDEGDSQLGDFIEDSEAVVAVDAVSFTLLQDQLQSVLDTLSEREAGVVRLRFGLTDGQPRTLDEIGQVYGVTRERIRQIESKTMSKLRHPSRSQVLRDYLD
CarD·RNAP binding (CarD association with RPo), sequence (P9WGY7 whole entry, further chain): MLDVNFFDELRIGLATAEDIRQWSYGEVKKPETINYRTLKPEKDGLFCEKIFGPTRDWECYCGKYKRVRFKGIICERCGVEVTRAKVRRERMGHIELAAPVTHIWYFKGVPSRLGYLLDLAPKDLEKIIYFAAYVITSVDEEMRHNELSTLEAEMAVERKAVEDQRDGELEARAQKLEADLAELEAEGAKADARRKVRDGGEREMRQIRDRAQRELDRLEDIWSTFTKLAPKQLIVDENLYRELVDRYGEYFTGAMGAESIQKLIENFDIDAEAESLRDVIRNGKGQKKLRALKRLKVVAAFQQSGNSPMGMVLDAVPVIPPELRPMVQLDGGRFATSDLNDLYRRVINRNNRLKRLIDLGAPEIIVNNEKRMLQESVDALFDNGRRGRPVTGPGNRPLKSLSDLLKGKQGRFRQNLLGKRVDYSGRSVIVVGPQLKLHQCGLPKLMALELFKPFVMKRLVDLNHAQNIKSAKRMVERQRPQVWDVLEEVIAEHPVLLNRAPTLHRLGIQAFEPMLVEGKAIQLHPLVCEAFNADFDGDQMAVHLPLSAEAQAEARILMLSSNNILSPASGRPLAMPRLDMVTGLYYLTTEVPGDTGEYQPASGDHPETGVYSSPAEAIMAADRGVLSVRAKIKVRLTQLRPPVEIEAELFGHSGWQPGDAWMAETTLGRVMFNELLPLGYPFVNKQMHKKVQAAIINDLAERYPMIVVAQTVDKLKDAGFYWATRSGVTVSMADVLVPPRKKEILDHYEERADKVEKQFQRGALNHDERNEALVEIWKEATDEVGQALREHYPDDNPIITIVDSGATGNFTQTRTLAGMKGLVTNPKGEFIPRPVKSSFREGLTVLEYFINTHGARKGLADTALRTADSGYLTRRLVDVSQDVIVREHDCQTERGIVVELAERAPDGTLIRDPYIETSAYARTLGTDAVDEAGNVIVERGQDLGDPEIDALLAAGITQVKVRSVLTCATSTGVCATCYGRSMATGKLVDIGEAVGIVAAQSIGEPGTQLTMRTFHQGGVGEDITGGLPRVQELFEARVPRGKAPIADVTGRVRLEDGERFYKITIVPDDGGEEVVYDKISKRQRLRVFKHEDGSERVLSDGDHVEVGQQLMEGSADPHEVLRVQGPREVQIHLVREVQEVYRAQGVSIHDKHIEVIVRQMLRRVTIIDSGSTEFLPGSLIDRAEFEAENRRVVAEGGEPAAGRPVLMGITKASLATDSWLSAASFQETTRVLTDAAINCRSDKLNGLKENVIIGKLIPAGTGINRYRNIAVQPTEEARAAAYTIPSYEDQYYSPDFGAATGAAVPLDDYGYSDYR
CarD·RNAP binding (CarD association with RPo), sequence (P9WGY9 whole entry, further chain): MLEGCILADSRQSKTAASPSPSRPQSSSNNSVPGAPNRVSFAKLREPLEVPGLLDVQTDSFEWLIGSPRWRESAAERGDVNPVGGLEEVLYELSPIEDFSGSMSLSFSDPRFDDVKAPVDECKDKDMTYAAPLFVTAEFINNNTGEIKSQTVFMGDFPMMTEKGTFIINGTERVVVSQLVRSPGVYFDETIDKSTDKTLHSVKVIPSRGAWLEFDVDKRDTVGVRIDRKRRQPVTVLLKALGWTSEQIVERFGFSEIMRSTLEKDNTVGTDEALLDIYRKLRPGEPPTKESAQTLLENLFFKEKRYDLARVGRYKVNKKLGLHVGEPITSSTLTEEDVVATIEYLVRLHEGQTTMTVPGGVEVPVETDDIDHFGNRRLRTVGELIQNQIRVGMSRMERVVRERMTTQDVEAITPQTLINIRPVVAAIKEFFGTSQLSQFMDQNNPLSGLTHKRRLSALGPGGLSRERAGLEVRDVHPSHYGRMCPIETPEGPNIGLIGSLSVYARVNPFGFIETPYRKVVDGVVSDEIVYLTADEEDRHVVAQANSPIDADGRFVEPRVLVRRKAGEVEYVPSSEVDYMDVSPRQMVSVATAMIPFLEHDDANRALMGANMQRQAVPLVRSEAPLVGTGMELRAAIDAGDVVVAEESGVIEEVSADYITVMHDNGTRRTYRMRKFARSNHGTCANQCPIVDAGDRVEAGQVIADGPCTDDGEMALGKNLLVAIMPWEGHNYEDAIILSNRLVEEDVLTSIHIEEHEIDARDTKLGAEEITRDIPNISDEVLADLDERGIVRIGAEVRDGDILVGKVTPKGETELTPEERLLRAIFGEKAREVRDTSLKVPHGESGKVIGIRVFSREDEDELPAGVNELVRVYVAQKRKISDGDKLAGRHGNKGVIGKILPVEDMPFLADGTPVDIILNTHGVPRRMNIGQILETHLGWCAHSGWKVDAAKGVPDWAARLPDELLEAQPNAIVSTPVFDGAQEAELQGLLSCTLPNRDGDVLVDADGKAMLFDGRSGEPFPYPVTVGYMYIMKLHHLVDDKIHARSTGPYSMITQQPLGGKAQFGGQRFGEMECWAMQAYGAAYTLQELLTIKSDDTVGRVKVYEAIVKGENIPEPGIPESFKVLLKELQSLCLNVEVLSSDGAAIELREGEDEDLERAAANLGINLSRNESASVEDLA
CarD·RNAP binding (CarD association with RPo), sequence (P9WGZ1 whole entry, further chain): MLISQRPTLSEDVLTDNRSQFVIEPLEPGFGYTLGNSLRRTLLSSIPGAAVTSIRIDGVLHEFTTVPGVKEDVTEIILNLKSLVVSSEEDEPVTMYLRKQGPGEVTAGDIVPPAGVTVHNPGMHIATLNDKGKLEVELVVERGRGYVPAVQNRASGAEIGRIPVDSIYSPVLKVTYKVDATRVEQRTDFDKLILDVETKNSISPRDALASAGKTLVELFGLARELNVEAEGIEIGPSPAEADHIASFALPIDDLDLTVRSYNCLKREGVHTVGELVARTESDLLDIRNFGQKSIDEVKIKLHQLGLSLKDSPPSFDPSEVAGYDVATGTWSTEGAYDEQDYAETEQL

SMILES | pIC50 (RNAP; read-out: IC50 In Vitro Transcription +RbpA) | pIC50 (RNAP; read-out: IC50 In Vitro Transcription -RbpA) | Concentration above which compound is prone to aggregation (turbidity curve) [1] | pIC50 [2]
CCc1c(Cl)c(O)c(Cl)c(O)c1C(=O)O[C@H]1[C@H](O)[C@H](OC)[C@H](OC/C2=C\C=C\C[C@H](O)/C(C)=C/[C@H](CC)[C@@H](O[C@@H]3OC(C)(C)[C@@H](OC(=O)C(C)C)[C@H](O)[C@@H]3O)/C(C)=C/C(C)=C/C[C@@H]([C@@H](C)O)OC2=O)O[C@@H]1C [Fidaxomicin] | 6.68 | 5.15 | – | –
O=C(O)c1ccc(-c2nc3ccc(-c4ccc5nc(-c6ccc(C(=O)O)cc6)[nH]c5c4)cc3[nH]2)cc1 [CCG-249580] | – | – | higher than 34 µM | 4.49 and 4.35
Cc1cc2c(NC(=O)Nc3ccccc3)cccc2nn1 [CCG-237488] | – | – | – | 4.70

From paper PMC7718890 (Scientific Reports, 2020)
